{"source": "patent US6573254B1", "about": "“Method for the stimulation of sperm production and gonadal development in animals” (University of Maryland, priority 1998, dated 2003)", "key": {"[1]": {"system": "broiler breeders", "assay": "0.2% SMZ in grower diet during photoperiodic phase of broilerization (weeks 20-28, LD 14:10)", "format": "in vivo, chicken", "settings": "p≦0.05", "text": "FIGS. 7A and 7B depict bar graphs showing testis weight response (7A) and plasma LH (7B) resulting from the “photoperiodic” phase of broilerization plus 0.2% SMZ added to a grower diet from 20 to 28 weeks of age. Testes and blood were sampled at 28 weeks of age. Photoperiod=LD 14:10.\nFIGS. 8A and 8B show plasma FSH (8A) and testosterone (8B) resulting from blood samples taken as described with respect to FIGS. 7A and 7B."}, "[2]": {"system": "male broiler chicks", "assay": "0.2% SMZ in starter ration during genetic selection phase of broilerization, from one week of age", "format": "in vivo, chicken", "text": "FIG. 4 depicts a bar graph showing the testes response resulting from the “genetic selection” phase of broilerization (see FIG. 1) plus 0.2% sulfamethazine (SMZ) added to a standard starter ration at one week of age.\nFIGS. 5A and 5B depict graphs showing weekly levels of plasma luteinizing hormone (LH; 5A) and follicle stimulating hormone (FSH; 5B) in male broiler chicks fed a diet with 0.2% SMZ beginning at one week of age (*=p[…]0.05).\n(§1) Blood samples were taken starting at day of SMZ administration and weekly following initiation of the treatment."}, "[3]": {"system": "broiler chicks", "settings": "cited from earlier work"}, "[4]": {"system": "broiler chicks", "assay": "0.2% SMZ in standard broiler ration, one to four weeks of age, continuous light versus LD 8:16", "format": "in vivo, chicken", "settings": "1-4 weeks of age", "protocol": "FIG. 9 depicts a bar graph showing testes weight following 0.2% SMZ (1-4 weeks of age) in chicks exposed to LD 24:0 or LD 8:16.\nIn a further study using broiler chicks, SMZ at 0.2% was added to a standard broiler ration and fed to chicks from one to four weeks of age. One group was raised under continuous light while a second group was exposed to a photoperiod of LD 8:16. […] Although food intake was not measured in this experiment, body weight was taken at the beginning and end of the study. […] Sulfamethazine has a stimulatory effect upon testes growth when chicks are exposed to a long photoperiod. One possible interpretation is that SMZ appears to facilitate or amplify the stimulatory effect of long-day light on gonadal development in male chicks."}, "[5]": {"system": "male broiler chicks", "assay": "Daily plasma LH immediately following dietary administration of 0.2% SMZ, from one week of age", "format": "in vivo, chicken", "settings": "0.2% SMZ diet from one week of age, FIG. 6", "text": "FIG. 6 depicts a graph showing daily levels of LH immediately following dietary administration of 0.2% SMZ, beginning at one week of age (*=p<0.05).\nas §1"}, "[6]": {"system": "chicks", "settings": "ICV administration to chicks; cited from earlier work"}}}
{"compound": "Cc1cc(C)nc(NS(=O)(=O)c2ccc(N)cc2)n1", "note": "[SMZ, Sulfamethazine]", "values": [{"measurement": "plasma LH", "setting": "[1]; 0.2% SMZ weeks 20-28, LD 14:10, blood at week 28, FIG. 7B", "value": "significantly elevated"}, {"measurement": "plasma FSH", "setting": "[1]; 0.2% SMZ weeks 20-28, LD 14:10, blood at week 28, FIG. 8A", "value": "significantly elevated"}, {"measurement": "plasma testosterone", "setting": "[1]; 0.2% SMZ weeks 20-28, LD 14:10, blood at week 28, FIG. 8B", "value": "significantly elevated"}, {"measurement": "testis weight versus controls", "setting": "[1]; 0.2% SMZ weeks 20-28, LD 14:10, sampled at 28 weeks, FIG. 7A", "value": "significantly heavier than controls"}, {"measurement": "plasma luteinizing hormone (LH), weekly levels", "setting": "[2]; 0.2% SMZ diet from one week of age, weekly blood samples, FIG. 5A", "value": "significantly increased"}, {"measurement": "plasma follicle stimulating hormone (FSH), weekly levels", "setting": "[2]; 0.2% SMZ diet from one week of age, weekly blood samples, FIG. 5B", "value": "significantly increased"}, {"measurement": "rate of testes growth", "setting": "[2]; 0.2% SMZ in starter ration from one week of age, FIG. 4", "value": "significantly increased"}, {"measurement": "semen production", "setting": "[2]; 0.2% SMZ in starter ration, by nine weeks of age", "value": "produced viable semen"}, {"measurement": "plasma gonadotropins", "setting": "[3]; broiler chicks", "value": "increases"}, {"measurement": "testes development", "setting": "[3]; broiler chicks", "value": "significantly increases"}, {"measurement": "thyroid hormone", "setting": "[3]; broiler chicks", "value": "transiently suppresses"}, {"measurement": "number of immuno-stained neuropeptide Y (NPY) neurons", "setting": "[3]; broiler chicks, mediobasal hypothalamus and infundibular nucleus (IN)", "value": "increases"}, {"measurement": "comb coloration (side effect)", "setting": "[3]; chronic use of SMZ", "value": "marked red coloration of the comb"}, {"measurement": "size of comb and testes (side effect)", "setting": "[3]; chronic use of SMZ", "value": "increased size of both comb and testes"}, {"measurement": "testes growth", "setting": "[4]; continuous light (LD 24:0), p≦0.05, FIG. 9", "value": "significantly elevated"}, {"measurement": "progonadal effects (testes weight)", "setting": "[4]; short photoperiod LD 8:16, FIG. 9", "value": "markedly attenuated"}, {"measurement": "body weight, long-day versus short-day SMZ treated groups", "setting": "[4]; weighed at beginning and end of study", "value": "No significant difference"}, {"measurement": "time until plasma LH was significantly elevated after consuming feed containing SMZ", "setting": "[5]", "value": "≤ 48", "unit": "h"}]}
{"compound": "neuropeptide Y [NPY]", "values": [{"measurement": "growth of the testes", "setting": "[6]", "value": "stimulates"}]}
